Laboratory results as given in patent US8546320B2, “Hsp9O-targeted anti-cancer chimeric peptide” (Kyoto University, priority 2008, dated 2013).
Where a SMILES comes first, the peptide text is derived from it.

Columns and labels:
cancer cells = experiment: Cell viability assay, summary statements on cancer cells; format: cell-based; conditions: for effect compared with the wild-type protein (summary of mutations): single mutation in TPR or Antp region of Antp-TPR
Caki-1 = format: cell-based, human; conditions: Caki-1; for Anti-cancer activity (% relative to wild-type peptide) / Decrease in cell survival rate (% relative to wild-type peptide): wild-type peptide = 100%
Procedure: A total of 3×10^3 cells were inoculated per well on a 96 well plate and cultured in a medium containing 10% FBS for 24 hours, and incubated with 100 μl of a peptide having a gradual increase in concentration at 37° C. for 48 to 72 hours. The survival rate of the cells was measured by using WST-8 solution (Cell Count Reagent SF; Nacalai Tesque, Inc.).
(§1) Respective variant peptides were subjected to cell viability assay. Specifically, Caki-1 (American Type Culture Collection (Manassas, Va.) was inoculated in a total amount of 3×10^3 cells per well on a 96 well plate (Nunc™); the cells were cultured in a medium (DMEM (Tesque, Inc.) containing 10% FBS (fetal bovine serum; Biowest)) for 24 hours and incubated with 100 μl of a peptide having a gradual increase in concentration at 37° C. for 48 to 72 hours. The cell survival rate was measured by using WST-8 solution (Cell Count Reagent SF; Nacalai Tesque, Inc.) and compared with that of the wild-type Antp-TPR peptide.
as §1, with “medium” for “medium (DMEM (Tesque, Inc.)”, “FBS” for “FBS (fetal bovine serum; Biowest))”

U937 = experiment: cells; format: cell-based, human; conditions: U937; for Cell Survival Rate (%): concentration not given; for Anti-cancer activity (% relative to wild-type peptide) / Decrease in cell survival rate (% relative to wild-type peptide): wild-type peptide = 100%
Procedure: A total of 3×10^3 cells per well were inoculated onto a 96 well plate, and incubated in a medium containing 10% FBS with 100 μl of a peptide diluted stepwise at 37° C. for 48 to 72 hours. The survival rate of the cells was measured by using WST-8 solution (Cell Count Reagent SF; Nacalai Tesque, Inc.).

Row | Compound | effect compared with the wild-type protein (summary of mutations) (cancer cells) | Anti-cancer activity (% relative to wild-type peptide) (Caki-1) [%] | Decrease in cell survival rate (% relative to wild-type peptide) (Caki-1) [%] | Cell Survival Rate (%) (U937) | Anti-cancer activity (% relative to wild-type peptide) (U937) [%] | Decrease in cell survival rate (% relative to wild-type peptide) (U937) [%] | other results
1 | CC[C@H](C)[C@H](NC(=O)[C@H](CCCNC(=N)N)NC(=O)[C@H](C)NC(=O)[C@H](Cc1ccc(O)cc1)NC(=O)[C@H](C)NC(=O)[C@H](CCCCN)NC(=O)[C@H](CCCCN)NC(=O)[C@H](CCCCN)NC(=O)[C@H](Cc1c[nH]c2ccccc12)NC(=O)[C@H](CCCCN)NC(=O)[C@H](CCSC)NC(=O)[C@H](CCCNC(=N)N)NC(=O)[C@H](CCCNC(=N)N)NC(=O)[C@H](CC(N)=O)NC(=O)[C@H](CCC(N)=O)NC(=O)[C@H](Cc1ccccc1)NC(=O)[C@H](Cc1c[nH]c2ccccc12)NC(=O)[C@@H](NC(=O)[C@H](CCCCN)NC(=O)[C@H](CC(C)C)NC(=O)[C@H](CCC(N)=O)NC(=O)[C@@H](N)CCCNC(=N)N)[C@@H](C)CC)C(=O)NCC(=O)N[C@@H](CC(N)=O)C(=O)N[C@@H](CO)C(=O)N[C@@H](Cc1ccc(O)cc1)C(=O)N[C@@H](Cc1ccccc1)C(=O)N[C@@H](CCCCN)C(=O)O [Antp 13L-TPR] (H-RQLKIWFQNRRMKWKKKAYARIGNSYFK-OH; N-terminus and C-terminus assumed) | effective but with an effect lower than the wild-type protein | 69.12 | 27.91 | – | – | – | –
2 | CC[C@H](C)[C@H](NC(=O)[C@H](CCCNC(=N)N)NC(=O)[C@H](C)NC(=O)[C@H](Cc1ccc(O)cc1)NC(=O)[C@H](C)NC(=O)[C@H](CCCCN)NC(=O)[C@H](CCCCN)NC(=O)[C@H](CCCCN)NC(=O)[C@H](Cc1c[nH]c2ccccc12)NC(=O)[C@H](CCCCN)NC(=O)[C@H](CCSC)NC(=O)[C@H](CCCNC(=N)N)NC(=O)[C@H](CCCNC(=N)N)NC(=O)[C@H](CC(N)=O)NC(=O)[C@H](CCC(N)=O)NC(=O)[C@H](Cc1ccccc1)NC(=O)[C@H](Cc1c[nH]c2ccccc12)NC(=O)[C@@H](NC(=O)[C@H](CCCCN)NC(=O)[C@@H](NC(=O)[C@H](CCC(N)=O)NC(=O)[C@@H](N)CCCCN)[C@@H](C)CC)[C@@H](C)CC)C(=O)NCC(=O)N[C@@H](CC(N)=O)C(=O)N[C@@H](CO)C(=O)N[C@@H](Cc1ccc(O)cc1)C(=O)N[C@@H](Cc1ccccc1)C(=O)N[C@@H](CCCCN)C(=O)O [Antp-R1K-TPR] (H-KQIKIWFQNRRMKWKKKAYARIGNSYFK-OH; N-terminus and C-terminus assumed) | effective but with an effect lower than the wild-type protein | 64.10 | 24.98 | – | – | – | –
3 | CC[C@H](C)[C@H](NC(=O)[C@H](CCCNC(=N)N)NC(=O)[C@H](C)NC(=O)[C@H](Cc1ccc(O)cc1)NC(=O)[C@H](C)NC(=O)[C@H](CCCCN)NC(=O)[C@H](CCCCN)NC(=O)[C@H](CCCCN)NC(=O)[C@H](Cc1c[nH]c2ccccc12)NC(=O)[C@H](CCCNC(=N)N)NC(=O)[C@H](CCSC)NC(=O)[C@H](CCCNC(=N)N)NC(=O)[C@H](CCCNC(=N)N)NC(=O)[C@H](CC(N)=O)NC(=O)[C@H](CCC(N)=O)NC(=O)[C@H](Cc1ccccc1)NC(=O)[C@H](Cc1c[nH]c2ccccc12)NC(=O)[C@@H](NC(=O)[C@H](CCCCN)NC(=O)[C@@H](NC(=O)[C@H](CCC(N)=O)NC(=O)[C@@H](N)CCCNC(=N)N)[C@@H](C)CC)[C@@H](C)CC)C(=O)NCC(=O)N[C@@H](CC(N)=O)C(=O)N[C@@H](CO)C(=O)N[C@@H](Cc1ccc(O)cc1)C(=O)N[C@@H](Cc1ccccc1)C(=O)N[C@@H](CCCCN)C(=O)O [Antp K13R-TPR] (H-RQIKIWFQNRRMRWKKKAYARIGNSYFK-OH; N-terminus and C-terminus assumed) | effect similar to that of the wild-type protein | 108.64 | 360.96 | – | – | – | killing effect compared with the wild-type peptide (Caki-1): stronger than that of the wild-type peptide
4 | RQIKIWFQNRRMKWKKKGYGRIGNYYYK (Antp-TPR A2G,A4G,S9Y,F11Y peptide) [Antp-A2G, A4G, S9Y, F11Y] | – | – | – | 21.14 | 102.73 | 109.90 | killing effect compared with the wild-type peptide (U937): increase in effect
5 | RQIKIWFQNRRMKWKKKAYARAGNSYFK (Antp-TPR I6A peptide) [Antp-I6A] | effect higher than the wild-type protein | – | – | 7.48 | 120.54 | 310.88 | killing effect compared with the wild-type peptide (U937): increase in effect
6 | CC[C@H](C)[C@H](NC(=O)[C@H](CCCNC(=N)N)NC(=O)[C@H](C)NC(=O)[C@H](Cc1ccc(O)cc1)NC(=O)[C@H](C)NC(=O)[C@H](CCCCN)NC(=O)[C@H](C)NC(=O)[C@@H](NC(=O)[C@H](CCC(N)=O)NC(=O)[C@H](CCCNC(=N)N)NC(=O)[C@H](CCCCN)NC(=O)[C@H](CCCCN)NC(=O)[C@H](Cc1c[nH]c2ccccc12)NC(=O)[C@H](CCCCN)NC(=O)[C@H](CCSC)NC(=O)[C@H](CCCNC(=N)N)NC(=O)[C@H](CCCNC(=N)N)NC(=O)[C@H](CC(N)=O)NC(=O)[C@H](CCC(N)=O)NC(=O)[C@H](Cc1ccccc1)NC(=O)[C@H](Cc1c[nH]c2ccccc12)NC(=O)[C@@H](NC(=O)[C@H](CCCCN)NC(=O)[C@@H](NC(=O)[C@H](CCC(N)=O)NC(=O)[C@@H](N)CCCNC(=N)N)[C@@H](C)CC)[C@@H](C)CC)[C@@H](C)CC)C(=O)NCC(=O)N[C@@H](CC(N)=O)C(=O)N[C@@H](CO)C(=O)N[C@@H](Cc1ccc(O)cc1)C(=O)N[C@@H](Cc1ccccc1)C(=O)N[C@@H](CCCCN)C(=O)O [Antp-TPR slong] (H-RQIKIWFQNRRMKWKKRQIAKAYARIGNSYFK-OH; N-terminus and C-terminus assumed) | – | – | – | – | – | – | killing effect compared with the wild-type peptide (Caki-1): retained the effect of wild-type peptide
7 | CC[C@H](C)[C@H](NC(=O)[C@H](CCCNC(=N)N)NC(=O)[C@H](C)NC(=O)[C@H](Cc1ccc(O)cc1)NC(=O)[C@H](C)NC(=O)[C@H](CCCCN)NC(=O)[C@H](CCCCN)NC(=O)[C@H](CCCCN)NC(=O)[C@H](Cc1c[nH]c2ccccc12)NC(=O)[C@H](CCCCN)NC(=O)[C@H](CCSC)NC(=O)[C@H](CCCNC(=N)N)NC(=O)[C@H](CCCNC(=N)N)NC(=O)[C@H](CC(N)=O)NC(=O)[C@H](CCC(N)=O)NC(=O)[C@H](Cc1ccccc1)NC(=O)[C@H](Cc1c[nH]c2ccccc12)NC(=O)[C@@H](NC(=O)[C@H](CCCCN)NC(=O)[C@@H](NC(=O)[C@H](CCC(N)=O)NC(=O)[C@@H](N)CCCNC(=N)N)[C@@H](C)CC)[C@@H](C)CC)C(=O)NCC(=O)N[C@@H](CC(N)=O)C(=O)N[C@@H](CO)C(=O)NCC(=O)NCC(=O)NCC(=O)O (H-RQIKIWFQNRRMKWKKKAYARIGNSGGG-OH) | – | – | – | – | – | – | cytotoxic activity / cell-killing effect (cancer cells): the cytotoxic activity was lower
8 | CC[C@H](C)[C@H](NC(=O)[C@H](CCCCN)NC(=O)[C@@H](NC(=O)[C@H](CCC(N)=O)NC(=O)[C@@H](N)CCCNC(=N)N)[C@@H](C)CC)C(=O)N[C@@H](Cc1c[nH]c2ccccc12)C(=O)N[C@@H](Cc1ccccc1)C(=O)N[C@@H](CCC(N)=O)C(=O)N[C@@H](CC(N)=O)C(=O)N[C@@H](CCCNC(=N)N)C(=O)N[C@@H](CCCNC(=N)N)C(=O)N[C@@H](CCSC)C(=O)N[C@@H](CCCCN)C(=O)N[C@@H](Cc1c[nH]c2ccccc12)C(=O)N[C@@H](CCCCN)C(=O)N[C@@H](CCCCN)C(=O)N[C@@H](CCCCN)C(=O)N[C@@H](C)C(=O)N[C@@H](Cc1ccc(O)cc1)C(=O)N[C@@H](C)C(=O)N[C@@H](C)C(=O)N[C@@H](C)C(=O)NCC(=O)N[C@@H](CC(N)=O)C(=O)N[C@@H](CO)C(=O)N[C@@H](Cc1ccc(O)cc1)C(=O)N[C@@H](Cc1ccccc1)C(=O)N[C@@H](CCCCN)C(=O)O (H-RQIKIWFQNRRMKWKKKAYAAAGNSYFK-OH; N-terminus and C-terminus assumed) | – | – | – | – | – | – | cytotoxic activity / cell-killing effect (cancer cells): the cytotoxic activity was lower
9 | RQIKIWFQNRRMKWKKRKFSAAIGYNKY (Antp-scramble peptide) [reference compound] | – | – | – | 95.30 | 6.13 | 24.39 | –
10 | RQIKIWFQNRRMKWKKKAYAAIGNSYFK (Antp-TPR R5A peptide) [Antp-R5A] | effective but with a lower effect than the wild-type protein | – | – | 40.24 | 77.85 | 57.74 | –
